Reference: ChEMBL document CHEMBL3232955, “Impact of stereospecific intramolecular hydrogen bonding on cell permeability and physicochemical properties” (J Med Chem, 2014)
Converted amounts (≈) assume the structure as drawn.

What was measured:
[1] = Efflux ratio of apparent permeability from basolateral to apical side to apical to basolateral side of human Caco2 cells; assay type: ADME, cell-based; conditions: Caco-2
[2] = Dissociation constant, pKa of the compound for N15, 3'-amine group by dip probe absorption spectroscopy; assay type: physicochemical
[3] = Solubility of the compound in phosphate buffered saline at pH 7.4 containing 1% DMSO after 18 hrs by UPLC-MS method; assay type: physicochemical; conditions: phosphate buffered saline with 1% DMSO
[4] = Dissociation constant, pKa of the compound for N34 pyridine group by dip probe absorption spectroscopy; assay type: physicochemical
[5] = Lipophilicity, log D of the compound by shake flask technique; assay type: physicochemical; conditions: octanol/water

efflux ratio [1] | pKa [2] | solubility kinetic at 18 h [3] [µM] | pKa [4] | logD [5] | Structure (SMILES)
0.36 | 6.08 | 1 (≈ 0.581 µg/mL) | 2.76 | – | C[C@@H](CO)N1C(=O)c2cccc(NC(=O)c3ccncc3)c2O[C@@H](CN(C)Cc2ccc(Oc3ccccc3)cc2)[C@@H]1C
0.1 | 6.18 | 1 (≈ 0.581 µg/mL) | 2.77 | – | C[C@@H]1[C@@H](CN(C)Cc2ccc(Oc3ccccc3)cc2)Oc2c(NC(=O)c3ccncc3)cccc2C(=O)N1[C@@H](C)CO
0.42 | 6.14 | 2 (≈ 1.16 µg/mL) | 2.76 | – | C[C@H](CO)N1C(=O)c2cccc(NC(=O)c3ccncc3)c2O[C@@H](CN(C)Cc2ccc(Oc3ccccc3)cc2)[C@@H]1C
0.31 | 6.08 | 1 (≈ 0.581 µg/mL) | 2.77 | – | C[C@H](CO)N1C(=O)c2cccc(NC(=O)c3ccncc3)c2O[C@H](CN(C)Cc2ccc(Oc3ccccc3)cc2)[C@H]1C
0.47 | 7.07 | 86 (≈ 49.9 µg/mL) | 2.98 | 3.4 | C[C@H](CO)N1C(=O)c2cccc(NC(=O)c3ccncc3)c2O[C@@H](CN(C)Cc2ccc(Oc3ccccc3)cc2)[C@H]1C
0.41 | 7.08 | 93 (≈ 54 µg/mL) | 2.98 | 3.4 | C[C@@H](CO)N1C(=O)c2cccc(NC(=O)c3ccncc3)c2O[C@H](CN(C)Cc2ccc(Oc3ccccc3)cc2)[C@@H]1C
0.36 | 7.16 | 98 (≈ 56.9 µg/mL) | 2.98 | 3.4 | C[C@H](CO)N1C(=O)c2cccc(NC(=O)c3ccncc3)c2O[C@H](CN(C)Cc2ccc(Oc3ccccc3)cc2)[C@@H]1C
0.48 | 7.16 | 87 (≈ 50.5 µg/mL) | 2.97 | 3.4 | C[C@@H]1[C@H](CN(C)Cc2ccc(Oc3ccccc3)cc2)Oc2c(NC(=O)c3ccncc3)cccc2C(=O)N1[C@@H](C)CO
